From ChEMBL document CHEMBL1201862, “PubChem BioAssay data set” (2004)
The source made the active and inactive calls.

Key:
[1] = A549 cell cytotoxicity, dose response, cytotoxicity control, plate reader, cherry-pick, antagonist series (AID 743412); assay type: functional, cell-based
[2] = toxicity toward HepG2 liver cells – cell-based, plate reader, cherry-pick, antagonist series, cytotoxicity control, dose response (AID 743416); assay type: functional
Streptokinase A = biological target: T1, Streptokinase A (Streptococcus pyogenes serotype M1, UniProt P10520); test: viability-normalized secreted streptokinase activity reduction – plasminogen activation absorbance, OD405, dose response (AID 1914); assay type: functional, Streptococcus pyogenes M1 GAS;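 also: secreted streptokinase activity via plasminogen activation per viability signal from cell pellet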
T1 sequence (P10520 whole entry): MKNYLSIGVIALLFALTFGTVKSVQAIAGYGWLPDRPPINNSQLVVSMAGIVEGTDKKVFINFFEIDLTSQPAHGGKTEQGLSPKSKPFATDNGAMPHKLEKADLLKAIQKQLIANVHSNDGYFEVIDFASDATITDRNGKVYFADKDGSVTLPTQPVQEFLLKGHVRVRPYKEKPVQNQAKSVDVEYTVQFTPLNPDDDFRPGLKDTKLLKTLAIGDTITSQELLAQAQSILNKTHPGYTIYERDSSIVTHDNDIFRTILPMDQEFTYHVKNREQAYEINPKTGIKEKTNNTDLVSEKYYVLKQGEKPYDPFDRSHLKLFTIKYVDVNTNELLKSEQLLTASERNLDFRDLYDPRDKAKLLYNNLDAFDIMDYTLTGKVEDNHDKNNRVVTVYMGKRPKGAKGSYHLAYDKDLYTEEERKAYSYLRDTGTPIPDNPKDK

[3] = viability loss in HEK293 cells – cell-based, plate reader, cherry-picked samples, cytotoxicity control, dose response (AID 743446); assay type: functional
CAAX prenyl protease 2 = biological target: T2, CAAX prenyl protease 2 (Saccharomyces cerevisiae S288c, UniProt Q03530); assay type: biochemical
T2 sequence (Q03530 whole entry): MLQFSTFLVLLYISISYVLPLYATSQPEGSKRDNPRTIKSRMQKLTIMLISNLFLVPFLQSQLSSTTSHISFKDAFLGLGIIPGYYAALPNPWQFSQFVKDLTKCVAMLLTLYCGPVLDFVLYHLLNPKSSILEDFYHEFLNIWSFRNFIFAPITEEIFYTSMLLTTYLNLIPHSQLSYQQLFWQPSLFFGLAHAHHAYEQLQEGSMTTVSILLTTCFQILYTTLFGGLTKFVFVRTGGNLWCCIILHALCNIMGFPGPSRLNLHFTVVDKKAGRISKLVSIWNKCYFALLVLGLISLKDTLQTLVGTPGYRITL

Trypsin = Trypsin (Sus scrofa, UniProt P00761); test: trypsin protease activity blockade – biochemical, quenched peptide fluorescence, cherry-pick, selectivity assay for Rce1 protease inhibitor project, dose response (AID 488789)
[4] = test system: Streptococcus sp. 'group A'; test: Streptococcus pyogenes SK(-)GAS viability under kanamycin – luminescence, BacTiterGlo, confirmation, counter-screen for streptokinase expression inhibitor project, dose response (AID 1900); assay type: functional, organism-based
[5] = blockers of bursicon-stimulated LGR2 cAMP reporter – cell-based, HEK293, CRE-luciferase reporter, cherry pick, set 2, dose response (AID 743343); assay type: functional;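 also: transfected cells were stimulated with diluted bursicon conditioned medium after compound addition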
[6] = blockade of melanocortin 4 receptor signaling – cell-based, plate reader, cherry pick, counter-screen for LGR2 antagonist project, dose response (AID 743444); assay type: functional;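 also: transfected HEK 293 cells stimulated with alpha-MSH peptide; potency of inhibitors of the alpha-MSH evoked signal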
Streptococcus = test: GAS UMAA2166 growth inhibition – luminescence, BacTiterGlo, counter-screen for streptokinase expression inhibitor project, dose response (AID 1915); assay type: functional, organism-based;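 also: potency for reduction of bacterial viability or growth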
[7] = biological target: T3, Short transient receptor potential channel 4 (Mus musculus, UniProt Q9QUQ5); test: potentiation of DAMGO-evoked TRPC4 calcium signal – cell-based, HEK293 TRPC4/mu-opioid, Fluo-4 calcium, EC20 DAMGO, dose response (AID 434941); assay type: functional
T3 sequence (Q9QUQ5 whole entry): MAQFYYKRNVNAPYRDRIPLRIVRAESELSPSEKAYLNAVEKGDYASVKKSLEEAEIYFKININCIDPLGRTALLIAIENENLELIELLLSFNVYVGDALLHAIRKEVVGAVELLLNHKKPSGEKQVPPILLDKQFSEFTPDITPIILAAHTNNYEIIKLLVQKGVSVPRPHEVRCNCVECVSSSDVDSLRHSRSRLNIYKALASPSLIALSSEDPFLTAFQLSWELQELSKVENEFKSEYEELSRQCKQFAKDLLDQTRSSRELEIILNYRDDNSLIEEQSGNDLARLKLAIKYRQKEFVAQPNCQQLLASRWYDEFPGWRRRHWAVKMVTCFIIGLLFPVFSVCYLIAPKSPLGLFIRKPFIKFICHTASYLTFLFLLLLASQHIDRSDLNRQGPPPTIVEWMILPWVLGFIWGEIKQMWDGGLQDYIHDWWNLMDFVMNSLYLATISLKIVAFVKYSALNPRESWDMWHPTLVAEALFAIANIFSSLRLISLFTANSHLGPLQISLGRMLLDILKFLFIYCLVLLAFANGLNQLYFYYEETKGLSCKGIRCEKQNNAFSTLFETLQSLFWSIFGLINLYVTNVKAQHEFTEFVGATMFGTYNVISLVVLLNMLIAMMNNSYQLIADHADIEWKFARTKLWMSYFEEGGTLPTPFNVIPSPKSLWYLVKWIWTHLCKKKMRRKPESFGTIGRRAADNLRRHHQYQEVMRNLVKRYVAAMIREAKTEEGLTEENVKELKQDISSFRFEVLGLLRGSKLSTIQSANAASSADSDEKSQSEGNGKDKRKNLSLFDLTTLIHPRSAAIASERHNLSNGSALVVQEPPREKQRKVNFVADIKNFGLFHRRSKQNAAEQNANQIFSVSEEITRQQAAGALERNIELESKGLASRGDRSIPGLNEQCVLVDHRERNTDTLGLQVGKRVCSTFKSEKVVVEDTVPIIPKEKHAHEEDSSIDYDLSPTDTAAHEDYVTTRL

[8] = biological target: Polyadenylate-binding protein 1 (Homo sapiens, UniProt P11940); test: PABP inhibition in translation initiation, SAR follow-up (AID 435018); assay type: functional
[9] = biological target: Eukaryotic translation initiation factor 4H (Homo sapiens, UniProt Q15056); test: inhibitors of translation initiation factor eIF4H – SAR follow-up (AID 435011); assay type: functional
[10] = protection from phage-mediated lysis, alamar blue read-out – E. coli UTI89, K1F phage, bacterial capsule biogenesis inhibitors (AID 488966); assay type: functional
[11] = biological target: Voltage-dependent T-type calcium channel subunit alpha-1H (Homo sapiens, UniProt O95180); assay type: functional;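 also: channel activity triggered by adding a high calcium stimulation buffer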
[12] = biological target: G-protein coupled receptor 55 (Homo sapiens, UniProt Q9Y2T6); test: inhibition of LPI-stimulated GPR55 beta-arrestin translocation – imaging, U2OS, beta-arrestin-GFP, LPI agonist, primary screen (AID 2013); assay type: functional;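 also: antagonist potency measured as reduced agonist-driven arrestin aggregation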
[13] = biological target: T4, Tyrosine-protein phosphatase non-receptor type 7 (Homo sapiens, UniProt P35236); test: redox-active compounds inhibiting HePTP phosphatase – biochemical, fluorescence, mechanism study (AID 2068); assay type: functional
T4 sequence (P35236 whole entry): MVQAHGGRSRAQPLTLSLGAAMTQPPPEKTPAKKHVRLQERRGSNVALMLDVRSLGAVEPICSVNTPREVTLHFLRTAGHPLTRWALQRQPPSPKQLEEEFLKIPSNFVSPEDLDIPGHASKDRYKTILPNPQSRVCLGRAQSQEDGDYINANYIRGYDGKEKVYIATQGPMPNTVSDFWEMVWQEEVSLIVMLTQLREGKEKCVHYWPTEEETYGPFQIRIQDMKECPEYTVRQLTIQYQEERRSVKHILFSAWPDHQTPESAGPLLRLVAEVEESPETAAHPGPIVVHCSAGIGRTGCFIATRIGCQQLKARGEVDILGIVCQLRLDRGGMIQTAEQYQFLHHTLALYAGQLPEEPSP

Hexokinase = Hexokinase (Trypanosoma brucei, UniProt Q38C41); test: Confirmation assay for inhibitors of Trypanosoma brucei hexokinase 1-Analogue-first series. [Related pubchem assays (depositor defined):AID1430, AID1632, AID2516, AID2560, AID2579, AID2600, AID449725, AID492951]; assay type: functional
Chain of Hexokinase (Q38C41 whole entry): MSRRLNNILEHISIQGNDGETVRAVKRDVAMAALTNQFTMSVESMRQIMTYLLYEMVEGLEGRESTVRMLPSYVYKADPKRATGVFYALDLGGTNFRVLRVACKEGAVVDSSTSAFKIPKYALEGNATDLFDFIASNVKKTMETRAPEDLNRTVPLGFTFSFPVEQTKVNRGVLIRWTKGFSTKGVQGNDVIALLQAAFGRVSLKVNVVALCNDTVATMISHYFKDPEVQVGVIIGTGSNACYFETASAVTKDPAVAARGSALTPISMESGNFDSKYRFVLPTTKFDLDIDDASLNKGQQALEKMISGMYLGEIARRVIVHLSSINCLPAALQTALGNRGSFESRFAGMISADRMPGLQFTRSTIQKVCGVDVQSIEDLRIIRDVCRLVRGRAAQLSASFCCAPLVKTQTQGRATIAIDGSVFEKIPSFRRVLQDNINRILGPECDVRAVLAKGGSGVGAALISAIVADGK

Chain of Polyadenylate-binding protein 1 (P11940 whole entry): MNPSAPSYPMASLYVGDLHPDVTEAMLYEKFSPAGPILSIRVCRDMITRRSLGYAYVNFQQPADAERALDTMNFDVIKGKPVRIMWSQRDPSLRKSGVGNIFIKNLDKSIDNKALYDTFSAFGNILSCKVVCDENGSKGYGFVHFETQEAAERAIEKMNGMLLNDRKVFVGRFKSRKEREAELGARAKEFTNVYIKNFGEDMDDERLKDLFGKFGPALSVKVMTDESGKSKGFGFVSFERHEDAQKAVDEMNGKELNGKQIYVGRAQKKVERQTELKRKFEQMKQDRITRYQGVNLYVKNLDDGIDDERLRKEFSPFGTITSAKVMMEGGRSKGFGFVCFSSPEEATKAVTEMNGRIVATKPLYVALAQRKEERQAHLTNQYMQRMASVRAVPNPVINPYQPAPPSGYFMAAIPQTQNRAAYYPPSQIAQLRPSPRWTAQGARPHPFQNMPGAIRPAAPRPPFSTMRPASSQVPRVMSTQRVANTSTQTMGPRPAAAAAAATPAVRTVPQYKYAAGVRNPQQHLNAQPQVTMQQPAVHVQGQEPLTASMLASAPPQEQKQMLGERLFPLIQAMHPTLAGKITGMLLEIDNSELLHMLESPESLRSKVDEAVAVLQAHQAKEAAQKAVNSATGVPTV
Chain of G-protein coupled receptor 55 (Q9Y2T6 whole entry): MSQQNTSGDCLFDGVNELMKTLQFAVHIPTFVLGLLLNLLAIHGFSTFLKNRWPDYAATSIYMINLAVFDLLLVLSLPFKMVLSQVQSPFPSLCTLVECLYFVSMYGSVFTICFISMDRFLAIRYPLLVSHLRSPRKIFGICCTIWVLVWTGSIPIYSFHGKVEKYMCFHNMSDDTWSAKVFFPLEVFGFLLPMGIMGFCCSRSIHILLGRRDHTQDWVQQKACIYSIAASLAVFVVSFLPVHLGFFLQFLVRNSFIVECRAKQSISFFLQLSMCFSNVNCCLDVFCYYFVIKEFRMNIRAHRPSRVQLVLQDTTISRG
Chain of Trypsin (P00761 whole entry): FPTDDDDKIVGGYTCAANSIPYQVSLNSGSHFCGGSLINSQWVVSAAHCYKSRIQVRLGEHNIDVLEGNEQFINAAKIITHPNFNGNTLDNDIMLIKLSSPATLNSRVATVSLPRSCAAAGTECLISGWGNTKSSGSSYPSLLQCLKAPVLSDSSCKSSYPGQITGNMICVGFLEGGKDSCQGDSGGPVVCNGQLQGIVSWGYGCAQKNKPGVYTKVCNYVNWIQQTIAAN
Chain of Voltage-dependent T-type calcium channel subunit alpha-1H (O95180 whole entry): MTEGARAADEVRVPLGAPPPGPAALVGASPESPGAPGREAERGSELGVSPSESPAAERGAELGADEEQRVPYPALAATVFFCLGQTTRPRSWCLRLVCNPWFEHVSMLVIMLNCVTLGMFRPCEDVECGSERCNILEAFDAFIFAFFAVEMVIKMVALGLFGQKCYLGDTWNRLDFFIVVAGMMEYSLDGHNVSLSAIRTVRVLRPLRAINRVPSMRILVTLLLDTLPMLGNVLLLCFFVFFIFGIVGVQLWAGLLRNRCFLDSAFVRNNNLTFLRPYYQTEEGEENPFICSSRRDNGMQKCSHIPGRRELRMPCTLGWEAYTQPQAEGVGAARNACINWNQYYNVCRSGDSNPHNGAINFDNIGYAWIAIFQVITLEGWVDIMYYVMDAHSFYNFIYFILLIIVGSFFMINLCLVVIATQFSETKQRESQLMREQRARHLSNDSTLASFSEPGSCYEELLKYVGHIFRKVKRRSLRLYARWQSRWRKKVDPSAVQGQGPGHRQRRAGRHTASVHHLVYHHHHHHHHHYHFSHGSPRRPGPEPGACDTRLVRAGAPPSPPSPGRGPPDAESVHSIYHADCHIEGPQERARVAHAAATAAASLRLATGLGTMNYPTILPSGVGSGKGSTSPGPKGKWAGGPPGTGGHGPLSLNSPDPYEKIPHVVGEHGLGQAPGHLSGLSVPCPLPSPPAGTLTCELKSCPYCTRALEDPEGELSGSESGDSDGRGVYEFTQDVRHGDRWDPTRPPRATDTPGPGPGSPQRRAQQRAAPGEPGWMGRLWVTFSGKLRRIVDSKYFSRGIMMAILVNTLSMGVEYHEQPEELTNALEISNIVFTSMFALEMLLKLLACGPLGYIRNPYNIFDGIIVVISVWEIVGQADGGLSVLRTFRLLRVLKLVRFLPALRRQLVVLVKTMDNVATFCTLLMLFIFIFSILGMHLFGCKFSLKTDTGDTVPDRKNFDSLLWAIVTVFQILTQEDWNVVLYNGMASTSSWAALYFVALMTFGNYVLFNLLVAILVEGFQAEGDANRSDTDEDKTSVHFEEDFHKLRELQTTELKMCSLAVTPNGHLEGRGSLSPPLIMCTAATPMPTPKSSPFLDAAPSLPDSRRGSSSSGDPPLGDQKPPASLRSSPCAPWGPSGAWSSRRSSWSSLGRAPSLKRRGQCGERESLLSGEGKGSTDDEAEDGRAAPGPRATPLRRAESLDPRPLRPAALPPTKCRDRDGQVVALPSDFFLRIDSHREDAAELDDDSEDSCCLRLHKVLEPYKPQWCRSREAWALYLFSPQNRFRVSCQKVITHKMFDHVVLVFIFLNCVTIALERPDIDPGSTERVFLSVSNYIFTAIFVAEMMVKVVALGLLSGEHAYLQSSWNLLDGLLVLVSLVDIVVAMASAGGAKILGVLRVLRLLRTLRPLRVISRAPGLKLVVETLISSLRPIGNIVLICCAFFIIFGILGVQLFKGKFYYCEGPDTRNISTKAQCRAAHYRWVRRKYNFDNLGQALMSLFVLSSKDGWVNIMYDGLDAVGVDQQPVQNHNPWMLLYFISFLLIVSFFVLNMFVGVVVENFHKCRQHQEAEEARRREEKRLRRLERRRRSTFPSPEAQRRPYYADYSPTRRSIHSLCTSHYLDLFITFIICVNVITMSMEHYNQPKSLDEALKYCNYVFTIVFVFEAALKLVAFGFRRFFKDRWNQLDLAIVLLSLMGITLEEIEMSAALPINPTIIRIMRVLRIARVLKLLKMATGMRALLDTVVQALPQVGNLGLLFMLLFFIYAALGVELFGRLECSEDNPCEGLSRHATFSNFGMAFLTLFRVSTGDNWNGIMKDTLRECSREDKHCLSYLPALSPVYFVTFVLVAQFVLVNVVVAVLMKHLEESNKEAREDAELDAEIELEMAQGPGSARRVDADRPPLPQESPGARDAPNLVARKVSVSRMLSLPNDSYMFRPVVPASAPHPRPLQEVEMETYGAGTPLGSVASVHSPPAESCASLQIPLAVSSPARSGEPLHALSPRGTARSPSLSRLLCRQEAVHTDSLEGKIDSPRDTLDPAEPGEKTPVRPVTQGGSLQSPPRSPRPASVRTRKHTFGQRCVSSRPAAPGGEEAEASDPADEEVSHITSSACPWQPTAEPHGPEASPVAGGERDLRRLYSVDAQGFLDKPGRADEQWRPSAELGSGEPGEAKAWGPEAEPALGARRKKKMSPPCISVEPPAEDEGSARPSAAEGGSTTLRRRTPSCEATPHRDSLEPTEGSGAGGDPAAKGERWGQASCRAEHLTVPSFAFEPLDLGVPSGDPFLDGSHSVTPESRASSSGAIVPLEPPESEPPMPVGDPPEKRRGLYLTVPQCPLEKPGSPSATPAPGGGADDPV

With `CCC(C)Sc1cc(-c2nc3ccccn3c2NC2CCCCC2)ccc1OC` (stereo not drawn) the AC50 [1] was 15.7 µM (active), the AC50 [2] was 18.2 µM (active) and the EC50 (Streptokinase A) was 15 µM (active). For the same compound, the AC50 [3] was 21.1 µM (active), the AC50 (CAAX prenyl protease 2) was 7.58 µM (active) and the AC50 (Trypsin) was 2.69 µM (active). The EC50 [4] was 2.28 µM (active), the AC50 [5] was 2.82 µM (active) and the AC50 [6] was 3.11 µM (active). The EC50 (Streptococcus) was 7.68 µM (active).
For `Cc1ccc(Cn2c(=N)c(C(=O)NC3CCCC3)cc3c(=O)n4ccccc4nc32)cc1`, the EC50 [7] was 2.11 µM (active).
For `COc1cccc(N=C2SC(C(=O)Nc3ccc(F)cc3)CC(=O)N2C)c1` (stereo not drawn), the IC50 [8] was > 100 µM (inactive) and the IC50 [9] was > 100 µM (inactive).
For `Cc1cc(C(=O)NN=Cc2ccc(OC(=O)c3ccco3)cc2)c(C)o1`, the IC50 [10] was > 150 µM (active).
In the case of `O=C(CSc1nc2ccccc2o1)Nc1ccccc1N1CCCCCC1`, the EC50 [11] is reported as 8.41 µM (active) and the IC50 [12] is reported as 2.06 µM (active).
In the case of `CNC(=O)Nc1ccc2nc(-c3ccco3)c(-c3ccco3)nc2c1`, the IC50 [13] is reported as 0.816 µM (active).
For `O=C(Cn1sc2cc(F)ccc2c1=O)Nc1ccccc1`, the IC50 (Hexokinase) was 4.34 µM (active).
